Experimental data as given in article PMC8556085, “Antimicrobial and Antioxidant Secondary Metabolites from Trifolium baccarinii Chiov. (Fabaceae) and Their Mechanisms of Antibacterial Action” (BioMed Research International, 2021).
Marks after values point to notes of the source that are not given here.

Key:
[1] = test system: Staphylococcus aureus ATCC25923; assay: Bacteriolytic assay (time-kill kinetic method, OD600); assay type: cell-based; settings: Staphylococcus aureus ATCC25923 suspension, 2xMIC, after 240 min, compared to the 0 time value
Method: (§1) (1) Bacteriolytic Assay. […] Full growth of bacterium in MHB was diluted 100 times and incubated at 37°C to produce an OD600 of 0.8 as a starting inoculum. Sample solutions were added to the starting bacterial suspension to give a final concentration of 2xMIC and incubated at 37°C under agitation at 150 rpm. After the incubation period corresponding to 0, 15, 30, 60, 120, and 240 min, 100 μL was pipetted from each tube and the optical density was recorded at 600 nm using the Biobase UV-Vis spectrophotometer. Corresponding dilutions of test samples were used as blanks. Oxacillin was used as a positive control, and the tubes without an extract/compound served as negative controls. All the measurements were done in triplicate and repeated three times.

[2] = test system: Pseudomonas aeruginosa ATCC27853; assay: as above; assay type: cell-based; settings: Pseudomonas aeruginosa suspension, 2xMIC, after 240 min, compared to the 0 time value
Method: as §1

[3] = test system: Candida albicans ATCC10231; assay: Broth microdilution MIC/MMC; assay type: cell-based
Procedure, shortened: (§2)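 Twofold broth microdilution in MHB (bacteria) or SDB (yeasts), final range 2048–0.125 μg/mL. Inocula were 1 × 10^6 CFU/mL for bacteria, incubated at 37 °C for 24 h with shaking, and 1 × 10^5 spores/mL for yeasts (C. albicans 30 °C 48 h; C. neoformans 30 °C 72 h). MIC was the lowest concentration with no visible growth, in triplicate.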

[4] = test system: Cryptococcus neoformans H99; assay: Broth microdilution MIC/MMC; assay type: cell-based
Procedure, shortened: as §2

[5] = test system: methicillin-resistant Staphylococcus aureus 04 (MRSA04); assay: Broth microdilution MIC/MMC; assay type: cell-based
Procedure, shortened: as §2

[6] = test system: methicillin-resistant Staphylococcus aureus 03 (MRSA03); assay: Broth microdilution MIC/MMC; assay type: cell-based
Procedure, shortened: as §2

[7] = test system: Staphylococcus aureus ATCC25923; assay: Broth microdilution MIC/MMC; assay type: cell-based
Procedure, shortened: as §2

Escherichia coli S2(1) = assay: Broth microdilution MIC/MMC; assay type: cell-based
Procedure, shortened: as §2

[8] = test system: Pseudomonas aeruginosa ATCC27853; assay: Broth microdilution MIC/MMC; assay type: cell-based
Procedure, shortened: as §2

[9] = DPPH free radical scavenging assay; settings: mean ± SD
Method: The free radical scavenging activity of extracts and compounds was evaluated according to the described method. The EC50 (μg/mL), which is the amount of sample necessary to inhibit by 50% the absorbance of free radical DPPH, was calculated. Vitamin C was used as a standard control. All the analyses were carried out in triplicate and repeated three times.

Staphylococcus aureus = assay: Loss of salt tolerance; assay type: cell-based; settings: pretreatment 1/2xMIC, MIC, 2xMIC for 1 h; MHA-NaCl 50, 60, 70 g/L
Method: (2) Loss of Salt Tolerance in Staphylococcus aureus. The ability of Staphylococcus aureus ATCC25923 and MRSA03 cells treated with the methanol extract and compound 5 to grow on Mueller-Hinton agar (MHA) supplemented with NaCl was investigated. In preliminary experiments, untreated suspensions of Staphylococcus aureus were plated on MHA supplemented with NaCl from 40 to 100 g/L. Plates were incubated. After incubation, the resulting colonies were counted. Concentrations of NaCl, 50, 60, and 70 g/L, which modestly compromised the colony-forming abilities of untreated microorganisms, were selected. For further experimentation steps, suspensions of bacteria were prepared as previously described and treated with the MeOH extract or compound 5 at 1/2xMIC, MIC, and 2xMIC. After 1 h incubation, samples were removed, serially diluted, and inoculated onto MHA and MHA-NaCl (50, 60, and 70 g/L). Bacterial culture without a sample was used as a control for each MHA-NaCl plate. Upon incubation, the numbers of CFU per milliliter on each MHA-NaCl plate were compared to those on the MHA plate, and the result was expressed as a percentage.

[10] = Staphylococcus aureus ATCC25923
[11] = Pseudomonas aeruginosa ATCC27853

**Q.** Which “decline in cell turbidity” value [1] does the source give for “4,7,2′-trihydroxy-4′-methoxyisoflavanol [compound 5]” here?
**A.** Its value is 99.87%.

**Q.** What about the “decline in cell turbidity” value [2] of the same substance?
**A.** Its value is 99.85%.

**Q.** And the MMC ([3]; Candida albicans ATCC10231)?
**A.** The MMC was 16 µg/mL.

**Q.** And the MMC/MIC ([3]; Candida albicans ATCC10231)?
**A.** The MMC/MIC was 2.

**Q.** And the MIC ([3]; Candida albicans ATCC10231, 48 h, 30°C)?
**A.** The MIC was 8 µg/mL.

**Q.** And the MMC ([4]; Cryptococcus neoformans H99)?
**A.** The MMC was 8 µg/mL.

**Q.** What about the MMC/MIC ([4]; Cryptococcus neoformans H99) of the same substance?
**A.** The MMC/MIC was 1.

**Q.** What about the MIC ([4]; Cryptococcus neoformans H99, 72 h, 30°C) of the same substance?
**A.** The MIC was 8 µg/mL.

**Q.** And the MMC ([5]; MRSA04)?
**A.** The MMC was 16 µg/mL.

**Q.** And the MMC/MIC ([5]; MRSA04)?
**A.** Its MMC/MIC is 1.

**Q.** What about the MIC ([5]; MRSA04, 24 h, 37°C) of the same substance?
**A.** Its MIC is 16 µg/mL.

**Q.** And the MMC ([6]; MRSA03)?
**A.** Its MMC is 32 µg/mL.

**Q.** What about the MMC/MIC ([6]; MRSA03) of the same substance?
**A.** The MMC/MIC was 2.

**Q.** And the MIC ([6]; MRSA03, 24 h, 37°C)?
**A.** The MIC was 16 µg/mL.

**Q.** And the MMC [7, 10]?
**A.** The MMC was 8 µg/mL.

**Q.** What about the MMC/MIC [7, 10] of the same substance?
**A.** The MMC/MIC was 1.

**Q.** And the MIC ([7]; Staphylococcus aureus ATCC25923, 24 h, 37°C)?
**A.** The MIC was 8 µg/mL.

**Q.** What about the MMC (Escherichia coli S2(1)) of the same substance?
**A.** The MMC was 16 µg/mL.

**Q.** What about the MMC/MIC (Escherichia coli S2(1)) of the same substance?
**A.** The MMC/MIC was 2.

**Q.** What about the MIC (Escherichia coli S2(1); 24 h, 37°C) of the same substance?
**A.** The MIC was 8 µg/mL.

**Q.** And the MMC [8, 11]?
**A.** The MMC was 8 µg/mL.

**Q.** What about the MMC/MIC [8, 11] of the same substance?
**A.** The MMC/MIC was 1.

**Q.** What about the MIC ([8]; Pseudomonas aeruginosa ATCC27853, 24 h, 37°C) of the same substance?
**A.** The MIC was 8 µg/mL.

**Q.** What about the “DPPH free radical scavenging activity (EC50)” value [9] of the same substance?
**A.** Its value is 11.58 ± 0.73^f μg/mL.

**Q.** What about the “number of colony-forming units on NaCl-supplemented media after pretreatment” value (Staphylococcus aureus) of the same substance?
**A.** The value was “significant decrease”.
